Patent US20250339399A1, “SUPRAMOLECULAR SELF-ASSEMBLY SYSTEM” (Beijing Creatron Institute of Pharmaceutical Research Co., …, priority 2022, published 2025)

Assays:
[1] = cited from earlier work
[2] = Guest molecule concentration after incubation in initial medium without polymer (Comparative Example 1); format: physicochemical; settings: 37° C.
Method in brief: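 Dissolved guest content measured by HPLC of centrifuged supernatants (37° C., 13000 rpm, 5 min) sampled at 0.5 h, 3 h and 6 h. Incubation was polymer-free at 37° C.±0.5° C. in buffers of pH 2.0-7.4; nominal loading was set by maximum clinical dose.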

[3] = Binary (carrier), ternary and quaternary supramolecular self-assembly systems of polymer, carrier building block and target: guest concentration over incubation time (Examples 1-56); format: physicochemical
Experimental: pH 2.0 hydrochloric acid, pH 4.5 acetate, and pH 6.5, pH 6.8, or pH 7.4 phosphate buffer solutions were prepared. The selection of each initial medium followed the principle that the solubility in the initial medium of the selected targets (or active ingredients) should low enough, but should meet the detection sensitivity and accuracy requirements of the corresponding analytical methods. Each buffer as initial media was placed in a 50 ml test tube with a stopper, shaken in a constant temperature air shaker at 37° C.±0.5° C., with an amplitude of 200 rpm, and incubated for 1 hour. […] Samples were taken at 0.5 h, 3 h and 6 h after incubation, centrifuged at 37° C., 13000 rpm for 5 minutes, and the supernatant was diluted at least 10 times with the mobile phase under the target analyte analytical method, filtered, the initial filtrate was discarded, and the continued filtrate was used as the test solution for injection analysis. The corresponding HPLC method under each target object item in Table 8 was used to determine the content of each target substance. When the solubility of the target in the initial medium is below the quantitative limit of the analytical method, a small amount of surfactant, such as sodium dodecyl sulfate (SDS), Tween20, or Tween80, can be added appropriately.
Experiments were conducted according to the steps in Comparative Example 1, and quantitative analysis was carried out using the analytical method for each target to investigate the regulation ability of each binary supramolecular self-assembly system built from 0.5% polymer and target on guest molecules stacking.
Ternary supramolecular self-assembly systems based on different polymers, carrier building blocks, and targets were built according to the experimental scheme in Table 12, to investigate the influence of synergistic regulation of the carrier building blocks and the polymers on the stacking of target molecules, as well as the stability of the supramolecular self-assembly systems jointly built by them over incubation time. The initial medium, quantitative analysis method, pre-treatment method, and initial theoretical concentration of the target, corresponding to each target molecule in the experiment, were consistent with those in Comparative Examples 1 and 2. After a target was added to the system, the target was uniformly dispersed by ultrasonication at 37° C. for half an hour and then shaken in a 37° C. constant temperature air shaker, and samples were collected after different incubation time, i.e. 0.5 h, 1 h, 2 h, 3 h, 4 h, and 6 h.

[4] = Binary supramolecular self-assembly systems of polymer and target: guest concentration over incubation time (Comparative Example 2); format: physicochemical; settings: for Concentration of guest molecule in solution / Times that of the initial medium: 6 h
Experimental: Experiments were conducted according to the steps in Comparative Example 1, and quantitative analysis was carried out using the analytical method for each target to investigate the regulation ability […] stacking.

[5] = binary, no polymer: 0.5% 301, 6 h
[6] = binary: 310, % not stated at the place, 6 h
[7] = binary: 312, % not stated at the place, 6 h
[8] = binary system with 0.5% polymer 101, incubation 0.5 h
[9] = binary system with 0.5% polymer 101, incubation 3 h
[10] = binary system with 0.5% polymer 101, incubation 6 h
[11] = binary system with 0.5% polymer 102, incubation 0.5 h
[12] = binary system with 0.5% polymer 102, incubation 3 h
[13] = binary system with 0.5% polymer 102, incubation 6 h
[14] = binary system with 0.5% polymer 103, incubation 0.5 h
[15] = binary system with 0.5% polymer 103, incubation 3 h
[16] = binary system with 0.5% polymer 103, incubation 6 h
[17] = binary system with 0.5% polymer 106, incubation 0.5 h
[18] = binary system with 0.5% polymer 106, incubation 3 h
[19] = binary system with 0.5% polymer 106, incubation 6 h
[20] = binary system with 0.5% polymer 107, incubation 0.5 h
[21] = binary system with 0.5% polymer 107, incubation 3 h
[22] = binary system with 0.5% polymer 107, incubation 6 h
[23] = binary system with 0.5% polymer 110, incubation 0.5 h
[24] = binary system with 0.5% polymer 110, incubation 3 h
[25] = binary system with 0.5% polymer 110, incubation 6 h

Concentration of guest molecule measured after different incubated time ([2]; 0.5 h, pH 6.8 phosphate buffer) [µg/mL]	Concentration of guest molecule measured after different incubated time ([2]; 3 h, pH 6.8 phosphate buffer) [µg/mL]	Concentration of guest molecule measured after different incubated time ([2]; 6 h, pH 6.8 phosphate buffer) [µg/mL]	Times that of the initial medium ([4]; binary: 0.5% 102H) [times]	Concentration of the target in the solution measured after different incubation time [4, 8] [µg/mL]	Concentration of the target in the solution measured after different incubation time [4, 9] [µg/mL]	Concentration of the target in the solution measured after different incubation time [4, 10] [µg/mL]	Concentration of the target in the solution measured after different incubation time [4, 11] [µg/mL]	Concentration of the target in the solution measured after different incubation time [4, 12] [µg/mL]	Concentration of the target in the solution measured after different incubation time [4, 13] [µg/mL]	Concentration of the target in the solution measured after different incubation time [4, 14] [µg/mL]	Concentration of the target in the solution measured after different incubation time [4, 15] [µg/mL]	Concentration of the target in the solution measured after different incubation time [4, 16] [µg/mL]	Concentration of the target in the solution measured after different incubation time [4, 17] [µg/mL]	Concentration of the target in the solution measured after different incubation time [4, 18] [µg/mL]	Concentration of the target in the solution measured after different incubation time [4, 19] [µg/mL]	Concentration of the target in the solution measured after different incubation time [4, 20] [µg/mL]	Concentration of the target in the solution measured after different incubation time [4, 21] [µg/mL]	Concentration of the target in the solution measured after different incubation time [4, 22] [µg/mL]	Compound	LogD7.4 or Log P [1]	other results
49.8	48.7	48.0	6.7	–	–	–	–	–	–	–	–	–	–	–	–	–	–	–	COc1ccc(-n2nc(C(N)=O)c3c2C(=O)N(c2ccc(N4CCCCC4=O)cc2)CC3)cc1 [Apixaban]	–	LogP [1]: LogP 1.83; Concentration of guest molecule in solution [3, 5]: 366.6 µg/mL; Times that of the initial medium [3, 5]: 7.5 times; Concentration of guest molecule in solution [3, 6]: 300.0 µg/mL; Times that of the initial medium [3, 6]: 6.3 times; Concentration of guest molecule in solution [3, 7]: 397.9 µg/mL; Times that of the initial medium [3, 7]: 8.2 times; Concentration of guest molecule in solution ([3]; ternary: 102H (0.25% where stated) + 301, carrier % not stated, 6 h): 334.8 µg/mL; Concentration of guest molecule in solution ([3]; ternary: 102H (0.25% where stated) + 302, carrier % not stated, 6 h): 312.6 µg/mL; Encapsulation rate for the guest molecule ([3]; ternary: 102H + 313 or 318): ~100%; Concentration of guest molecule in solution ([4]; binary: 0.25% 102H): 127.7 µg/mL; Times that of the initial medium ([4]; binary: 0.25% 102H): 2.7 times; Concentration of guest molecule in solution ([4]; binary: 0.25% 103E5): 114.6 µg/mL; Times that of the initial medium ([4]; binary: 0.25% 103E5): 2.4 times; Concentration of guest molecule in solution ([4]; binary: 0.5% 102H): 327.6 µg/mL
–	–	–	–	555.9	229.5	230.7	258.9	245.3	244.5	234.7	230.8	233.8	240.7	244.6	241.9	242.4	240.0	243.7	CCCCC1OC(=O)c2ccccc21 (stereo not drawn) [Butylphthalide]	3.36	Concentration of guest molecule measured after different incubated time ([2]; 0.5 h, pH 6.5 phosphate buffer): 252.2 µg/mL; Concentration of guest molecule measured after different incubated time ([2]; 3 h, pH 6.5 phosphate buffer): 246.4 µg/mL; Concentration of guest molecule measured after different incubated time ([2]; 6 h, pH 6.5 phosphate buffer): 246.0 µg/mL; Concentration of guest molecule in solution ([3]; ternary: 0.25% 102M + 0.25% 313, 2 h): 480.3 µg/mL; Concentration of guest molecule in solution ([3]; ternary: 0.25% 102M + 0.25% 313, 6 h): 650.6 µg/mL; Concentration of guest molecule in solution ([3]; ternary: 0.25% 102M + 0.25% 313, 10 h): 1026.3 µg/mL; Concentration of guest molecule in solution ([3]; ternary: 0.25% 102M + 0.25% 314, 2 h): 1103.4 µg/mL; Concentration of guest molecule in solution ([3]; ternary: 0.25% 102M + 0.25% 314, 6 h): 406.8 µg/mL; Concentration of guest molecule in solution ([3]; ternary: 0.25% 102M + 0.25% 318, 2 h): 521.5 µg/mL; Concentration of guest molecule in solution ([3]; ternary: 0.25% 102M + 0.25% 318, 6 h): 754.1 µg/mL; Concentration of guest molecule in solution ([3]; ternary: 0.25% 102M + 0.25% 318, 10 h): 1310.2 µg/mL; Concentration of guest molecule in solution ([3]; ternary: 0.25% 102M + 0.25% 319, 2 h): 413.5 µg/mL; Concentration of guest molecule in solution ([3]; ternary: 0.25% 102M + 0.25% 319, 6 h): 643.7 µg/mL; Concentration of guest molecule in solution ([3]; ternary: 0.25% 102M + 0.25% 319, 10 h): 1125.6 µg/mL; Concentration of the target in the solution measured after different incubation time [4, 23]: 240.5 µg/mL; Concentration of the target in the solution measured after different incubation time [4, 24]: 253.9 µg/mL; Concentration of the target in the solution measured after different incubation time [4, 25]: 252.1 µg/mL
–	–	–	1.7	272.9	221.8	193.8	90.1	75.5	72.2	102.4	88.4	84.4	150.2	131.1	128.2	236.9	151.4	137.8	CNC(=O)c1ccc(N2C(=S)N(c3ccc(C#N)c(C(F)(F)F)c3)C(=O)C2(C)C)cc1F [Enzalutamide]	4.16	Concentration of guest molecule measured after different incubated time ([2]; 0.5 h, 0.2% SDS in pH 6.8 phosphate buffer): 62.3 µg/mL; Concentration of guest molecule measured after different incubated time ([2]; 3 h, 0.2% SDS in pH 6.8 phosphate buffer): 57.1 µg/mL; Concentration of guest molecule measured after different incubated time ([2]; 6 h, 0.2% SDS in pH 6.8 phosphate buffer): 59.0 µg/mL; Concentration of guest molecule in solution ([3]; binary: 0.25% 312, 6 h): 135 µg/mL; Concentration of guest molecule in solution ([3]; binary: 0.25% 318, 6 h): 175 µg/mL; Concentration of guest molecule in solution ([3]; quaternary: 0.25% 202 (102H+107) + 0.25% 312, 6 h): 371 µg/mL; Concentration of guest molecule in solution ([3]; quaternary: 0.25% 202 (102H+107) + 0.25% 313, 6 h): 533 µg/mL; Concentration of guest molecule in solution ([3]; quaternary: 0.25% 202 (102H+107) + 0.25% 318, 6 h): 451 µg/mL; Concentration of guest molecule in solution ([3]; quaternary: 0.25% 202 (102H+107) + 0.25% 321, 6 h): 623 µg/mL; Concentration of the target in the solution measured after different incubation time [4, 23]: 53.8 µg/mL; Concentration of the target in the solution measured after different incubation time [4, 24]: 45.8 µg/mL; Concentration of the target in the solution measured after different incubation time [4, 25]: 43.0 µg/mL; Times that of the initial medium ([4]; binary: 0.5% 107): 1.9 times
57.2	51.1	53.0	–	–	–	–	80.5	80.2	75.7	–	–	–	–	–	–	–	–	–	CC1=C(/C=C/C(C)=C/C=C/C(C)=C/CO)C(C)(C)CCC1 [Vitamin A, vitamin A]	4.69	–
20.9	17.9	11.9	–	–	–	–	28.6	57.9	36.4	–	–	–	–	–	–	–	–	–	Cc1c(C)c2c(c(C)c1O)CC[C@@](C)(CCC[C@H](C)CCC[C@H](C)CCCC(C)C)O2 [Vitamin E, vitamin E]	10.50	–
